In ChEMBL document CHEMBL3779861, “Selective Inhibition of CBX6: A Methyllysine Reader Protein in the Polycomb Family” (ACS Med Chem Lett, 2016):
pIC50, pKd: −log10 of the molar value. Non-standard residues stand in square brackets, D forms with d. Residues, ends and D or L forms follow the SMILES beside them. *: point of attachment. X1 = O=C(O)c1cc(NC(=S)*)ccc1-c1c2ccc(=O)cc-2oc2cc(O)ccc12; Biotin = O=C1N[C@H]2[C@H](CS[C@H]2CCCCC(=O)*)N1; Lys(Me3) = C[N+](C)(C)CCCC[C@H](N)C(=O)O; Benzoyl(4-Br) = O=C(c1ccc(Br)cc1)*; Abu = CC[C@H](N)C(=O)O

Columns and labels:
[1] = biological target: T1, Chromobox protein homolog 6 (Homo sapiens, UniProt O95503); experiment: Binding affinity to N-terminal His6-tagged human CBX6 (8 to 65 residues) expressed in Escherichia coli BL21 by surface plasmon resonance assay
T1 sequence (O95503 whole entry): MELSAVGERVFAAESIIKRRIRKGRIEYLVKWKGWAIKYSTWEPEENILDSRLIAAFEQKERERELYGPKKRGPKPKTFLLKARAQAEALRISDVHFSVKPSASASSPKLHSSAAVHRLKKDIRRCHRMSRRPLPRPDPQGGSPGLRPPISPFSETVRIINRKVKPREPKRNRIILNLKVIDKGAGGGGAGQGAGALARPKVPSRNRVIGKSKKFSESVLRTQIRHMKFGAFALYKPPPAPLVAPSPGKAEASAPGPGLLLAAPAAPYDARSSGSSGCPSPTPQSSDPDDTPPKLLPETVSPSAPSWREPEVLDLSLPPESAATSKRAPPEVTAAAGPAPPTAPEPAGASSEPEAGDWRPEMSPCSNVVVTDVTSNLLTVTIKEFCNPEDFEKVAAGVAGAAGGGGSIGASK

[2] = biological target: T2, Chromobox protein homolog 7 (Homo sapiens, UniProt O95931); experiment: Binding affinity to N-terminal His6-tagged human CBX7 (8 to 62 residues) expressed in Escherichia coli BL21 by surface plasmon resonance assay
T2 sequence (O95931 whole entry): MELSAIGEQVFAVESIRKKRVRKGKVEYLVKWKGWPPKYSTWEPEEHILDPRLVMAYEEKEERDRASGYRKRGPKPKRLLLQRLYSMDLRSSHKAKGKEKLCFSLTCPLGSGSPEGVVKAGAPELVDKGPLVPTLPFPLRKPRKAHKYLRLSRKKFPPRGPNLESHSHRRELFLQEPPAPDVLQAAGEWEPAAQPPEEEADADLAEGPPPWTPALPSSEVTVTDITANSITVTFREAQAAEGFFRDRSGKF

[3] = biological target: Chromobox protein homolog 7 (Homo sapiens, UniProt O95931, V13A); experiment: Binding affinity to human CBX7 V13A mutant expressed in Escherichia coli BL21 by surface plasmon resonance assay
[4] = biological target: T2, Chromobox protein homolog 7; experiment: Binding affinity to N-terminal His6-tagged human CBX7 (8 to 62) expressed in Escherichia coli BL21 using FITC-peptide-3 as competitive binding probe by fluorescence polarization assay
[5] = biological target: Chromobox protein homolog 1 (Homo sapiens, UniProt P83916)
[6] = biological target: T3, Chromobox protein homolog 2 (Homo sapiens, UniProt Q14781); experiment: Binding affinity to N-terminal His6-tagged human CBX2 (8 to 62) expressed in Escherichia coli BL21 using FITC-peptide-3 as competitive binding probe by fluorescence polarization assay
T3 sequence (Q14781 whole entry): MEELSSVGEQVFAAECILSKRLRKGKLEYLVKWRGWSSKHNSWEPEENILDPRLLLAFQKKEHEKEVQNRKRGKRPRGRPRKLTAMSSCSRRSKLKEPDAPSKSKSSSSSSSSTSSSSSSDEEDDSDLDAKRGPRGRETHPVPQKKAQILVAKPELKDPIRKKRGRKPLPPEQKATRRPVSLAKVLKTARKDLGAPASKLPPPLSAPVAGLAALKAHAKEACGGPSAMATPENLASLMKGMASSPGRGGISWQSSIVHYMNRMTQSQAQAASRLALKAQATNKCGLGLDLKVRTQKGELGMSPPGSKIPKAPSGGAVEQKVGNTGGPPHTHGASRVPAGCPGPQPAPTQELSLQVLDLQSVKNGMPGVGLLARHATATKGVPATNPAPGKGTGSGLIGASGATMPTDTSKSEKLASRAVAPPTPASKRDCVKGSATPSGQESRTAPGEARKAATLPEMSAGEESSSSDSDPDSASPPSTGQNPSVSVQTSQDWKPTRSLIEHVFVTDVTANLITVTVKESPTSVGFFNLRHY

[7] = biological target: T4, E3 SUMO-protein ligase CBX4 (Homo sapiens, UniProt O00257); experiment: Binding affinity to N-terminal His6-tagged human CBX4 (8 to 65 residues) expressed in Escherichia coli BL21 using FITC-peptide-3 as competitive binding probe by fluorescence polarization assay
T4 sequence (O00257 whole entry): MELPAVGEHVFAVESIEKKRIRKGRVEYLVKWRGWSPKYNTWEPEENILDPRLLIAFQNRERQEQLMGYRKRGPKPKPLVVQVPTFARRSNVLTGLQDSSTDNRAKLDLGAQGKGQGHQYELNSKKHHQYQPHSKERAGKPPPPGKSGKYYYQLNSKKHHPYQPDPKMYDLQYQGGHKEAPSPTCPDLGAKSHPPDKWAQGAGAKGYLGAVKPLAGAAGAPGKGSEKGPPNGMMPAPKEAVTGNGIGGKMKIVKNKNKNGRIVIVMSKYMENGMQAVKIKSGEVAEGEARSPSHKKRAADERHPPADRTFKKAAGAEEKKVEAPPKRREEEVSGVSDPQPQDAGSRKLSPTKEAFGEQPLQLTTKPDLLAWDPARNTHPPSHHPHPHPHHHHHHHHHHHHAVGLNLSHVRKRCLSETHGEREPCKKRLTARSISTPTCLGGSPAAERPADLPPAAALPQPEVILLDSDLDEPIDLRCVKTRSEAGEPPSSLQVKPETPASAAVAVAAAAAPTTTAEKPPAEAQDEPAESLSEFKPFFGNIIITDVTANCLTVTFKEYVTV

[8] = biological target: T1, Chromobox protein homolog 6; experiment: Binding affinity to N-terminal His6-tagged human CBX6 (8 to 65 residues) expressed in Escherichia coli BL21 using FITC-peptide-3 as competitive binding probe by fluorescence polarization assay
[9] = biological target: T5, Chromobox protein homolog 8 (Homo sapiens, UniProt Q9HC52); experiment: Binding affinity to N-terminal His6-tagged human CBX8 (8 to 61 residues) expressed in Escherichia coli BL21 using FITC-peptide-3 as competitive binding probe by fluorescence polarization assay
T5 sequence (Q9HC52 whole entry): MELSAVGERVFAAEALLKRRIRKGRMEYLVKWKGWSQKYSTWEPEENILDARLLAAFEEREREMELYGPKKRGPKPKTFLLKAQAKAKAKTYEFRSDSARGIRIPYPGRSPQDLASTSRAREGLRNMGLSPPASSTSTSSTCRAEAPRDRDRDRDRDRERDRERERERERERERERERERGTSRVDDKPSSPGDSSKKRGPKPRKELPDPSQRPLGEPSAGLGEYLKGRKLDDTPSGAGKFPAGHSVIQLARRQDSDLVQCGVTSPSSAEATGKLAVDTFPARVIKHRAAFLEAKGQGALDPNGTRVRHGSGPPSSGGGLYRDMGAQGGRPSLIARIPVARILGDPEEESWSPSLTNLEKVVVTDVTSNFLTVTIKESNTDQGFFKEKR

Sequence of Chromobox protein homolog 1 (P83916 whole entry): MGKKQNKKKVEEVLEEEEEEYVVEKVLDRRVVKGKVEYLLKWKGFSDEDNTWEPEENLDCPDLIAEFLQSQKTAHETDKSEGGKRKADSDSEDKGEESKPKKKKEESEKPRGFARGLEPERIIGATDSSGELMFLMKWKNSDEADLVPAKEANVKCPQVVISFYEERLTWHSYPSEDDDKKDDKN
Sequence of Chromobox protein homolog 7 (Homo sapiens, UniProt O95931, V13A) (O95931 whole entry V13A): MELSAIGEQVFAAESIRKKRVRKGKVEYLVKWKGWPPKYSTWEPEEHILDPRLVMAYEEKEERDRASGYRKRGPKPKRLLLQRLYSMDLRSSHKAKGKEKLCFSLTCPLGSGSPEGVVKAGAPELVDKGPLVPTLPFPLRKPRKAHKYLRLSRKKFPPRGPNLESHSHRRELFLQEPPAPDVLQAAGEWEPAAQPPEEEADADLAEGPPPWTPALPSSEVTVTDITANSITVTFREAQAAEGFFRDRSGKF

Row | SMILES | pKd [1] | pKd [2] | pKd [3] | pKd [4] | pKd [5] | pKd [6] | pKd [7] | pKd [8] | pKd [9] | pIC50 [4]
1 | C[C@H](NC(=O)[C@H](Cc1ccccc1)NC(=O)c1ccc(Br)cc1)C(=O)N[C@@H](Cc1ccc(O)cc1)C(=O)N[C@@H](CCCC[N+](C)(C)C)C(=O)N[C@@H](CO)C(=O)N[C@@H](CCC(=O)O)C(=O)N[C@@H](CCCCNC(=O)CCCC[C@@H]1SC[C@@H]2NC(=O)N[C@@H]21)C(N)=O ({Benzoyl(4-Br)}-FAY[Lys(Me3)]SEK(Biotin)-NH2) | 6.96 | 6.80 | 6.54 |  |  |  |  |  |  | 
2 | C[C@H](NC(=O)[C@H](Cc1ccccc1)NC(=O)c1ccc(Br)cc1)C(=O)N[C@@H](Cc1ccc(O)cc1)C(=O)N[C@@H](CCCC[N+](C)(C)C)C(=O)N[C@@H](CO)C(=O)N[C@@H](CCC(=O)O)C(=O)N[C@@H](CCCCNC(=S)Nc1ccc(-c2c3ccc(=O)cc-3oc3cc(O)ccc23)c(C(=O)O)c1)C(N)=O ({Benzoyl(4-Br)}-FAY[Lys(Me3)]SEK(X1)-NH2) |  |  |  | 7.00 | 5.26 | 6.52 | 6.70 | 6.52 | 6.00 | 
3 | CC[C@H](NC(=O)[C@H](Cc1ccccc1)NC(=O)c1ccc(Br)cc1)C(=O)N[C@@H](Cc1ccc(O)cc1)C(=O)N[C@@H](CCCC[N+](C)(C)C)C(=O)N[C@@H](CO)C(=O)N[C@@H](CCC(=O)O)C(=O)N[C@@H](CCCCNC(=S)Nc1ccc(-c2c3ccc(=O)cc-3oc3cc(O)ccc23)c(C(=O)O)c1)C(N)=O ({Benzoyl(4-Br)}-F[Abu]Y[Lys(Me3)]SEK(X1)-NH2) |  |  |  | 6.40 | 4.12 | 5.80 | 6.10 | 6.10 | 6.00 | 
4 | C[C@H](NC(=O)[C@H](Cc1ccccc1)NC(=O)c1ccc(Br)cc1)C(=O)N[C@@H](Cc1ccc(O)cc1)C(=O)N[C@@H](CCCC[N+](C)(C)C)C(=O)N[C@@H](CO)C(N)=O ({Benzoyl(4-Br)}-FAY[Lys(Me3)]S-NH2) |  |  |  |  |  |  |  |  |  | 5.77
5 | CC(C)[C@H](NC(=O)[C@H](Cc1ccccc1)NC(=O)c1ccc(Br)cc1)C(=O)N[C@@H](Cc1ccc(O)cc1)C(=O)N[C@@H](CCCC[N+](C)(C)C)C(=O)N[C@@H](CO)C(=O)N[C@@H](CCC(=O)O)C(=O)N[C@@H](CCCCNC(=S)Nc1ccc(-c2c3ccc(=O)cc-3oc3cc(O)ccc23)c(C(=O)O)c1)C(N)=O ({Benzoyl(4-Br)}-FVY[Lys(Me3)]SEK(X1)-NH2) |  |  |  | 5.28 | 4.11 | 4.75 | 4.81 | 6.05 | 5.22 | 
6 | CC(C)[C@H](NC(=O)[C@H](Cc1ccccc1)NC(=O)c1ccc(Br)cc1)C(=O)N[C@@H](Cc1ccc(O)cc1)C(=O)N[C@@H](CCCC[N+](C)(C)C)C(=O)N[C@@H](CO)C(=O)N[C@@H](CCC(=O)O)C(=O)N[C@@H](CCCCNC(=O)CCCC[C@@H]1SC[C@@H]2NC(=O)N[C@@H]21)C(N)=O ({Benzoyl(4-Br)}-FVY[Lys(Me3)]SEK(Biotin)-NH2) | 6.04 | 4.47 | 4.62 |  |  |  |  |  |  | 
